Data taken from patent publication US20230346760A1, “AGENTS TO PREVENT TISSUE DAMAGE FROM CLOSTRIDIUM DIFFICILE INFECTIONS BY INHIBITION OF THE GUT-DAMAGING BACTERIAL TOXINS TCDA AND TCDB” (ALBERT EINSTEIN COLLEGE OF MEDICINE, priority 2020, published 2023).
Entries after “also recorded” stand apart in the source; their conditions may differ. Read-outs that look alike come from different tables or passages of the source.

Experiments:
TcdB = TcdB (Clostridioides difficile, UniProt P18177); experiment: Kinetic inhibition of TcdB glucosyltransferase / UDP-glucose hydrolysis; assay type: biochemical, Clostridium difficile
TcdB-GTD = target: T1, TcdB-GTD (Clostridioides difficile, UniProt P18177); assay type: binding, Clostridium difficile
T1 construct: (50 mM HEPES pH 7.5, 100 mM KCl, 4 mM MgCl2, 1 mM MnCl2) and 40 μM TcdB-GTD

TcdA [1] = target: T2, TcdA (Clostridioides difficile, UniProt P16154); experiment: biochemical; assay type: binding, Clostridium difficile
[2] = test system: TcdB induced cell rounding of CHO-K1 cells; assay type: cell-based
[3] = test system: TcdA induced rounding of CHO-K1 cells; assay type: cell-based
[4] = test system: Rac1 glucosylation by TcdA in IMR90 cells; assay type: cell-based
[5] = test system: Rac1 glucosylation by TcdB in IMR90 cells; assay type: cell-based
[6] = test system: TcdA induced apoptosis in HT-29 cells; assay type: cell-based
TcdA [7] = target: T2, TcdA; assay type: biochemical, Clostridium difficile

T1 sequence (P18177 2-543 limits assumed): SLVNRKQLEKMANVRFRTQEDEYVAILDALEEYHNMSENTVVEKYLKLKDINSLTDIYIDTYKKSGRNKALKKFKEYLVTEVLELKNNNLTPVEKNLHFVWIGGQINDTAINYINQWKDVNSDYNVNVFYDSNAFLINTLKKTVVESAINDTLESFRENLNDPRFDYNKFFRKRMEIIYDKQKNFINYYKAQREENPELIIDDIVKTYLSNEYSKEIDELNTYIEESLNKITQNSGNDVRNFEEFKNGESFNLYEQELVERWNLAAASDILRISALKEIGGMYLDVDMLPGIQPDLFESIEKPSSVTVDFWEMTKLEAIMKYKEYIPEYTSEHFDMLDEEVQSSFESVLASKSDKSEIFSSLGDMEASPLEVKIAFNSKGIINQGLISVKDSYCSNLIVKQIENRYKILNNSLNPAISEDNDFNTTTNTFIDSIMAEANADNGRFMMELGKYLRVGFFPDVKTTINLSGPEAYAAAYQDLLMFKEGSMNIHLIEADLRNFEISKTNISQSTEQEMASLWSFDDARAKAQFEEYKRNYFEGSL
Sequence of TcdB (P18177 1-543 limits assumed): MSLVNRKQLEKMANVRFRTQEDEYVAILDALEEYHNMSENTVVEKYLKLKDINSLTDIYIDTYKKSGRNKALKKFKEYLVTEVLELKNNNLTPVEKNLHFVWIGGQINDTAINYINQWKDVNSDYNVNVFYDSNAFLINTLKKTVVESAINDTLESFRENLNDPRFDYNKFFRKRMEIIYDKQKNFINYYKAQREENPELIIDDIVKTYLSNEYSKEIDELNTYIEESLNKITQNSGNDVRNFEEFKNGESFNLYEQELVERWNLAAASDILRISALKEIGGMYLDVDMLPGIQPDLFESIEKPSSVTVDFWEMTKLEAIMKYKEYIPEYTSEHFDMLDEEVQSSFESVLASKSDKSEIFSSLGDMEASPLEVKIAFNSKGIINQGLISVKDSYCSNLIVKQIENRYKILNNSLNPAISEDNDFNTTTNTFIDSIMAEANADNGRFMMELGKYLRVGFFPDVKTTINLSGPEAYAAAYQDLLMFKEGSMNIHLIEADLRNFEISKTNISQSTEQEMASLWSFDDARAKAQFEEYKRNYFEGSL
T2 sequence (P16154 whole entry, looked up): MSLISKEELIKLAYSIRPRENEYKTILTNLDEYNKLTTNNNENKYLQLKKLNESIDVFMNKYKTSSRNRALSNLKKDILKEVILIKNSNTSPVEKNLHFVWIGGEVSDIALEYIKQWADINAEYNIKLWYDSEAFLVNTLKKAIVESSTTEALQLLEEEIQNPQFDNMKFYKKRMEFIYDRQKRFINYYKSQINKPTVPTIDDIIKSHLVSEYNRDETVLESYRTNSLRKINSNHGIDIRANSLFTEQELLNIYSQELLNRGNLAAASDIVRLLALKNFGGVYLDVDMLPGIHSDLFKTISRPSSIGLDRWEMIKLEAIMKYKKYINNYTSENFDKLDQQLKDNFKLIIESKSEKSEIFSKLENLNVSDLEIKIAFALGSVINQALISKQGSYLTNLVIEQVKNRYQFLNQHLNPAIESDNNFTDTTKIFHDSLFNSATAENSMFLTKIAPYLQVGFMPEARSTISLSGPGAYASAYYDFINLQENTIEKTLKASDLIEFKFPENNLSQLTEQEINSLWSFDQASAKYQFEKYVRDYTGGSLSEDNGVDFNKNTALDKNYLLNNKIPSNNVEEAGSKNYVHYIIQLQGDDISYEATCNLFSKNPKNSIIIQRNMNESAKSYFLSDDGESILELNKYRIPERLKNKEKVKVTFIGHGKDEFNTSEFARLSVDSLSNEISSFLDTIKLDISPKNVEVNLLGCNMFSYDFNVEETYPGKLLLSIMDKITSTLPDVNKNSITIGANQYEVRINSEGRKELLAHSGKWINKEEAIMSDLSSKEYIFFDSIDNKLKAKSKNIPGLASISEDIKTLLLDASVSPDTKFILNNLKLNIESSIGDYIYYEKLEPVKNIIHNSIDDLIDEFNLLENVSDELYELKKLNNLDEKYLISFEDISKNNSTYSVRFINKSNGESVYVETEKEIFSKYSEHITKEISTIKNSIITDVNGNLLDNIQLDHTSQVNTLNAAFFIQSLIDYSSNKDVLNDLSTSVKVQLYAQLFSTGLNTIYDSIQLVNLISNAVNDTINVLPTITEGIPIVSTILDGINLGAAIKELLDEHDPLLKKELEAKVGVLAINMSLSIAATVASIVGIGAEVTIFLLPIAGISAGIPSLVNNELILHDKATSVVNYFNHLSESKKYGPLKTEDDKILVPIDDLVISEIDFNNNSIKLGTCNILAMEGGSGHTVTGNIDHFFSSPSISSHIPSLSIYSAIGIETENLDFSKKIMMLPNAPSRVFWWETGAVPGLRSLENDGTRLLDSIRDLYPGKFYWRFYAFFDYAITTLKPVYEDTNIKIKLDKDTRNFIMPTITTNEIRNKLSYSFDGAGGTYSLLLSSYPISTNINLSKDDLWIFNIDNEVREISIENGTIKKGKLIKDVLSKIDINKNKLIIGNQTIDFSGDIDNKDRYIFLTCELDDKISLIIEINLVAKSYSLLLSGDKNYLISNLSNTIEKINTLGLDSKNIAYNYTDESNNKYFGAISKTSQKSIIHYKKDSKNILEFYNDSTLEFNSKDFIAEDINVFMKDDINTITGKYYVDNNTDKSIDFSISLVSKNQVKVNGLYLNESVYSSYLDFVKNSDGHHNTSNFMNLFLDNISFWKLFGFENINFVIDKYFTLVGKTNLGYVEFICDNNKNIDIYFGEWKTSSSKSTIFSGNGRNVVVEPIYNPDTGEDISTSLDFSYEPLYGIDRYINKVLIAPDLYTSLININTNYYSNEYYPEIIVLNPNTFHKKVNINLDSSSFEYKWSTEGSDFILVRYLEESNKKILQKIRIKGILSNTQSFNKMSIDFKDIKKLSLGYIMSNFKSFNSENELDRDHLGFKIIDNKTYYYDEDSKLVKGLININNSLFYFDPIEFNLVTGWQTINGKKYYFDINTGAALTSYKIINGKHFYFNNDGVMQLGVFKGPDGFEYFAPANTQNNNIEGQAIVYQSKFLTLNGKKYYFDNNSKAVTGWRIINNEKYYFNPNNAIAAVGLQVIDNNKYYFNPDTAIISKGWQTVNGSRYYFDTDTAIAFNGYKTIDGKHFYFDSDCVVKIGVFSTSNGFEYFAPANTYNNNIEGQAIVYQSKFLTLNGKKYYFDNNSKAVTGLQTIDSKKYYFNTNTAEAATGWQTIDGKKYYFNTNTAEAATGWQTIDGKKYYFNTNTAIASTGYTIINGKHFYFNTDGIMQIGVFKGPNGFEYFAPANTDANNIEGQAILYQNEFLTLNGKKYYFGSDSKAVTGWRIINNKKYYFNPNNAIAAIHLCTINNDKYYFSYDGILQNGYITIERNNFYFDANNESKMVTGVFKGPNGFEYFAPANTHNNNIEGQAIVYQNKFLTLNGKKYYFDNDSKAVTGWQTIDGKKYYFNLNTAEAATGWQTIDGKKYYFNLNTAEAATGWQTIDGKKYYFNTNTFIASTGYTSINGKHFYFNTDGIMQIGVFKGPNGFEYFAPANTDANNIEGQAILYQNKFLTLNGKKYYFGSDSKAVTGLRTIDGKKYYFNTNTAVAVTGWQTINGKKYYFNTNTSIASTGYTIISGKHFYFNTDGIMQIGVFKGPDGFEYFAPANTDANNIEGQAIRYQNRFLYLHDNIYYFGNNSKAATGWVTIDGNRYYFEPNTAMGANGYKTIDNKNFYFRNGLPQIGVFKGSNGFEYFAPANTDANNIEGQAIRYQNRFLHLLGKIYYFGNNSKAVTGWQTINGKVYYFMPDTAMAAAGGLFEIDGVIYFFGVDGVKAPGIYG

## O=C1O[C@H](CO)[C@@H](O)[C@H](O)[C@H]1O [Gluconolactone, reference compound]
TcdB
  inhibition of Tcds (in words): poor inhibitor

## OC[C@H]1CNC[C@@H](O)[C@@H]1O [Isofagomine, (3R,4R,5R)-5-(hydroxymethyl)-3,4-piperidinediol]
TcdB; in the presence of 2×Ki for UDP, read-out: kinetic Ki (apparent Ki)
  Ki: 290 nM
TcdB; when UDP is present at 2×Ki
  increase of affinity: 3 fold
TcdB; with respect to UDP-glucose
  mechanism of inhibition: uncompetitive
TcdB-GTD
  ITC binding: no binding
  Kd: 66.9 ± 19.7 nM
  N: 0.5±0.01
  ΔG: -9.8 ± 0.3 kcal/mol
  ΔH: -10.3 ± 0.1 kcal/mol
  −TΔS: 0.5 ± 0.2 kcal/mol
TcdA [1]
  Kd: 7 nM
[2]
  protection from cell rounding: sufficient to protect CHO-K1 cells from rounding; also recorded: prevent rounding
[3]
  protection from cell rounding: prevent rounding
[4]
  un-glucosylated Rac1 (Mab102) compared to total Rac1: dose-dependent maintenance of un-glucosylated Rac1
[5]
  un-glucosylated Rac1 (Mab102) compared to total Rac1: dose-dependent maintenance of un-glucosylated Rac1
[6]
  apoptosis (Annexin V signal): prevented apoptosis

## OC[C@H]1CNC(O)[C@@H](O)[C@@H]1O (stereo partly shown) [Noeuromycin, noeuromycin]
TcdB; TcdB-UDP, read-out: Ki
  Ki: 4000 nM
TcdA [7]
  Ki: 200 nM
TcdB-GTD
  Kd: 180 ± 69.7 nM
  N: 1.2±0.1
  ΔG: -9.3 ± 0.3 kcal/mol
  ΔH: -5.2 ± 0.1 kcal/mol
[2]
  protection from cell rounding: prevent rounding
[3]
  protection from cell rounding: prevent rounding
[4]
  un-glucosylated Rac1 (Mab102) compared to total Rac1: dose-dependent maintenance of un-glucosylated Rac1
[5]
  un-glucosylated Rac1 (Mab102) compared to total Rac1: dose-dependent maintenance of un-glucosylated Rac1
[6]
  apoptosis (Annexin V signal): prevented apoptosis

## OC[C@H]1NC[C@H](O)[C@@H](O)[C@@H]1O [deoxynorjirimycin, reference compound]
TcdB
  inhibition of Tcds (in words): poor inhibition
